Two molecules from ChEMBL document CHEMBL5226391, “Valhidepsin Lipopeptides from Chromobacterium vaccinii: Structures, Biosynthesis, and Coregulation with FR900359 Production” (J Nat Prod, 2023) can be followed below.

The subject of one data set is Bacillus subtilis. Kind of data set: Antibacterial activity against Bacillus subtilis ATCC 23857. The class given is functional, organism-based.
A further data set concerns NCI-H647. In words: Antiproliferative activity against human NCI-H647 cells assessed as reduction in cell viability at 50 uM incubated for 72 hrs by cellTiter-glo assay. The class given is functional, cell-based.
In data set [1] the test system is Schizosaccharomyces pombe. Kind of data set: Antifungal activity against Schizosaccharomyces pombe H1374. It is filed as functional, organism-based.
A further data set deals with RERF-LC-MS. Kind of data set: Antiproliferative activity against human RERF-LC-MS cells assessed as reduction in cell viability at 50 uM incubated for 72 hrs by cellTiter-glo assay. The class given is functional, cell-based.
A further data set deals with A549. Kind of data set: Antiproliferative activity against human A549 cells assessed as reduction in cell viability at 50 uM incubated for 72 hrs by cellTiter-glo assay. It is filed as functional, cell-based. On the technique in general: In ATP-based viability assays light output follows the ATP content of the culture.
The test system of the next data set is NCI-H2228. In words: Antiproliferative activity against human NCI-H2228 cells assessed as reduction in cell viability at 50 uM incubated for 72 hrs by cellTiter-glo assay. The class given is functional, cell-based.
For another data set, the system named is Saccharomyces cerevisiae. Kind of data set: Antimicrobial activity against Saccharomyces cerevisiae YSD1. The class given is functional, organism-based.
A further data set relates to Escherichia coli. In words: Antibacterial activity against Escherichia coli ATCC 25922. The class given is functional, organism-based.
For a further data set, the system named is Pseudomonas aeruginosa. Kind of data set: Antibacterial activity against Pseudomonas aeruginosa PA14. It is filed as functional, organism-based.
The nature of data set [2]: Stability of compound at pH 8.5 assessed as half life measured at 0.5 to 92 hrs by LC-UV/MS analysis. The class given is physicochemical. The settings on record: buffer, time 0.5-92 hrs.
The nature of data set [3]: Stability of compound at pH 9 assessed as half life measured at 0.5 to 92 hrs by LC-UV/MS analysis. The settings on record: buffer, time 0.5-92 hrs. It is filed as physicochemical.
The nature of data set [4]: Stability of compound at pH 8 assessed as half life measured at 0.5 to 92 hrs by LC-UV/MS analysis. The settings on record: buffer, time 0.5-92 hrs. The class given is physicochemical.
Data set [5] can be described thus: Stability of compound at pH 7.5 measured at 0.5 to 92 hrs by LC-UV/MS analysis. The settings on record: buffer, time 0.5-92 hrs. It is filed as physicochemical.

Calls of active or inactive are those of the source. The rule behind the calls is not given here.

`CCCCCC/C=C\CC(=O)N[C@@H](CO)C(=O)N[C@@H](C(=O)N[C@@H](Cc1c[nH]cn1)C(=O)N[C@H](C(=O)N[C@H](CC(C)C)C(=O)N[C@H](C(=O)O)C(C)C)C(C)C)C(C)C`: the result (in the data set with Bacillus subtilis; in the data set on NCI-H647; in data set [1]; in the data set with RERF-LC-MS; with A549; in the data set with NCI-H2228) was inactive. In addition, the result in the data set with Saccharomyces cerevisiae, with Escherichia coli and in the data set with Pseudomonas aeruginosa was inactive.

The term half-life denotes the time in which the quantity being followed falls by half. For the molecule `CCCCCC/C=C\CC(=O)N[C@H]1COC(=O)[C@H](C(C)C)NC(=O)[C@@H](CC(C)C)NC(=O)[C@H](C(C)C)NC(=O)[C@H](Cc2c[nH]cn2)NC(=O)[C@@H](C(C)C)NC1=O`, the outcome (in the data set on Bacillus subtilis; in the data set on NCI-H647; in data set [1]; with RERF-LC-MS; in the data set on A549; in the data set with NCI-H2228) was Active. Besides, the outcome with Saccharomyces cerevisiae was Active. Also, the half-life in data set [2] was 26 h; in data set [3], 7 h; in data set [4], 5 h. Moreover, the Stability entry in data set [5] is reported as “Stable”. Besides, the outcome in the data set with Escherichia coli and in the data set with Pseudomonas aeruginosa was inactive.
